Common to all, as to experiment: NCI tumour cell line growth inhibition, 48 h
Assay [1] concerns M14 melanoma.
Assay [2] concerns A498 renal.
The subject of assay [3] is UACC-257 melanoma.
Assay [4] concerns SR leukemia.
Assay [5] has as its system SK-MEL-2 melanoma.
Assay [6] has as its system ACHN renal.
For assay [7], the system named is TK-10 renal.

Structures are written as SMILES.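 Step 1: Grow cells in 96-well plates. Step 2: Expose to compound for 48 hours at 5 concentrations. Step 3: Interpolate endpoints linearly; if unreached, use highest concentration. TGI denotes the concentration required for complete inhibition of growth.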

For the compound `COc1ccc(N2C(=O)C3c4[nH]c5ccccc5c4C4c5ccccc5CC4C3C2=O)cc1` (centres undefined), the TGI in assay [1], in assay [2], in assay [3], in assay [4], in assay [5] and in assay [6] was greater than 100 µM each time. For the same compound, the TGI in assay [7] was greater than 100 µM.
Turning to `N#Cc1ccc(C2Oc3ccc(Cl)cc3C=C2[N+](=O)[O-])cc1` (centres undefined), the TGI in assay [1] is 2.73 µM; in assay [2] it was 6.31 µM; in assay [3], 6.75 µM; in assay [4], 1.61 µM; in assay [5], 4.09 µM; in assay [6] it was 3.06 µM. For the same compound, the TGI in assay [7] worked out at 3.38 µM.
Turning to `C[C@@]12C[C@@H](c3ccccc3O1)N1Cc3ccccc3CSC1=N2`, the TGI in assay [1], in assay [2], in assay [3], in assay [4], in assay [5] and in assay [6] was greater than 100 µM each time. This compound displayed a TGI in assay [7] greater than 100 µM.
In the case of `CC(C)(C)OC(=O)n1c(Cl)c(C=O)c2ccccc21`, the TGI in assay [1] was 82.9 µM; in assay [2] it was greater than 100 µM; in assay [3], 67.3 µM; in assay [4], greater than 100 µM; in assay [5], 96.4 µM; in assay [6] it was 52.9 µM. For the same compound, the TGI in assay [7] came to 53.4 µM.
Consider `CC(=O)c1[nH]c(Nc2ccc(C)cc2)c(C(=S)Nc2ccccc2)c1N`, for which the TGI in assay [1] was 36.4 µM; in assay [2], 28.8 µM; in assay [3], 36.5 µM; in assay [4] it was greater than 100 µM; in assay [5], 31.9 µM; in assay [6], 36.2 µM. For the same compound, the TGI in assay [7] worked out at 35.5 µM.
Consider `CCOC1NC(/N=C/c2ccc(OC)cc2)=C(C#N)C1C#N` (centres undefined), for which the TGI in assay [1], in assay [2], in assay [3], in assay [4], in assay [5] and in assay [6] was greater than 100 µM each time. The compound further gave a TGI in assay [7] greater than 100 µM.
Regarding `O=C1O[C@H]2C3C4CCC(C4[C@@H]2I)[C@H]13` (some centres undefined), the TGI in assay [1], in assay [2], in assay [3], in assay [4], in assay [5] and in assay [6] was greater than 100 µM in each case. The TGI in assay [7] is greater than 100 µM.
As to `COc1cc(C(O)C(=O)c2cnc3cc([N+](=O)[O-])ccc3n2)ccc1O` (centres undefined), the TGI in assay [1], in assay [2], in assay [3], in assay [4], in assay [5] and in assay [6] was greater than 100 µM throughout. For the same compound, the TGI in assay [7] was greater than 100 µM.
Regarding `Cc1c2cccc-2c(OCCOC(=O)n2ccnc2)cc2c1[nH]c1ccccc12`, the TGI in assay [1] is 10.5 µM; in assay [2], 21 µM; in assay [3], 6.24 µM; in assay [4] it was greater than 100 µM; in assay [5], 5.48 µM; in assay [6], 7.27 µM. Moreover, the TGI in assay [7] worked out at 14.4 µM.
With `COc1ccc(C2C(C#N)=C(S)N(C3OC(CO)C(O)C(O)C3O)C(C)=C2C(C)=O)cc1` (centres undefined), the TGI in assay [1], in assay [2], in assay [3], in assay [4], in assay [5] and in assay [6] was greater than 100 µM each time. Further, the TGI in assay [7] is greater than 100 µM.
With `COc1ccc([C@H]2c3cc4c(cc3OC(O)(CO)[C@H]2C(=O)O)OCO4)c(OC)c1` (some centres undefined) (tested in a mixture with another compound), the TGI in assay [1], in assay [2], in assay [3], in assay [4], in assay [5] and in assay [6] was greater than 100 µM each time. In assay [7], this compound had a TGI greater than 100 µM.
Consider `Nc1ccccc1OCCCOc1ccccc1N`, for which the TGI in assay [1], in assay [2], in assay [3], in assay [4], in assay [5] and in assay [6] was greater than 100 µM in each case. In addition, in assay [7], the TGI was greater than 100 µM.
For `COc1ccc(Cn2c3ccc([N+](=O)[O-])cc3c(=O)n2Cc2ccccn2)cc1`, the TGI in assay [1], in assay [2], in assay [3], in assay [4], in assay [5] and in assay [6] was greater than 100 µM throughout. The TGI in assay [7] is greater than 100 µM.
As for `CN(C)CC1CCCc2ccccc2C1=O` (centres undefined), the TGI in assay [1] is 3.42 µM; in assay [2], 49.6 µM; in assay [3], 18.9 µM; in assay [4], greater than 100 µM; in assay [5], 4 µM; in assay [6] it was 3.3 µM. In assay [7], this compound registered a TGI of 14.7 µM.
For the compound `O=C(NNS(=O)(=O)c1ccccc1)c1csc(NC(=S)NC2CCCCC2)n1`, the TGI in assay [1] was greater than 100 µM; in assay [2] it was greater than 100 µM; in assay [3], 53.8 µM; in assay [4], greater than 100 µM; in assay [5] it was 41.7 µM; in assay [6], 93.6 µM. This compound also yielded a TGI in assay [7] greater than 100 µM.
As to `CCOC(=O)C(NC(=O)CC)(Nc1ccc(S(=O)(=O)Nc2ccc(OC)nn2)cc1)C(F)(F)F` (centres undefined), the TGI in assay [1], in assay [2], in assay [3], in assay [4], in assay [5] and in assay [6] was greater than 100 µM in each case. For the same compound, the TGI in assay [7] was greater than 100 µM.
Consider `OC1(c2ccc(Cl)cc2)c2c(c3ccccc3c3ccccc23)C2=NCCN21` (centres undefined), for which the TGI was 27 µM in assay [1]; 43.7 µM in assay [2]; 49.7 µM in assay [3]; 30.5 µM in assay [4]; 36.7 µM in assay [5]; 28.8 µM in assay [6]. The TGI in assay [7] amounted to 16.8 µM.

The record behind these values is PubChem BioAssay (NCI).
